Bridge positions count the residues as written; N and C are the ends. Peptide text beside a SMILES is read from it.
Key:
[1] = tested on: E. coli ML35; test: Cell-suspension microbicidal assay (MMC); format: cell-based, Escherichia coli; conditions: for MMC, E. coli: lowest concentration that reduced cell viability by 99.9%, 10 mM PIPES, 5 mM glucose, pH 7.4, 2 h 37° C.; for fold higher potency against E. coli than the peptide acid analog: carboxamide versus C-terminal acid of the same acyclic θ-defensin
Experimental: (§1) To test microbicidal activities, the activities of each peptide against S. aureus 502a, E. coli ML35, and C. albicans 16820 were assessed essentially as described in Example I with modifications to allow for simultaneous analysis of all twenty peptides. Briefly, two-fold serial dilutions of each peptide (in 0.01% acetic acid 0.062-8.0 μg/ml final concentrations) were mixed with 10 mM PIPES, pH 7.4, containing 5 mM glucose in sterile polystyrene 96-well plates (Corning, N.Y.). Aliquots of log-phase bacteria or yeast were added to a 2×10^6 CFU/ml final density as determined by A620. After 2 h incubation at 37° C., 15 μl of the incubation mixture was removed and serially diluted ten-fold from 1:10 to 1:10^6 in trypticase soy broth (bacteria) or Sabaraud dextrose broth (C. albicans). The diluted cell suspensions were grown 24-48 h at 37° C. until cell pellets were visible. Microbicidal activity was determined as absence of growth and was correlated to CFU/ml in control experiments where activity was determined in parallel by colony counting (see Example I). Absence of growth at the 1:10^3 dilution is equivalent to a 3-log reduction in microbial viability.
(§2) The microbicidal activities of each peptide against E. coli ML35, S. aureus 502a, and C. albicans 16820 were determined with cell-suspension microbicidal assays in 96-well plates (see Example II). Briefly, log-phase cells (2×10^6 CFU/ml final) were incubated with increasing concentrations of peptides (0-8 μg/ml final) in 50 μl of 10 mM PIPES, 5 mM glucose, pH 7.4, for 2 h at 37° C. Incubation mixtures were diluted 1:10 to 1:10^6 with trypticase-soy broth (bacteria) or Sabaraud dextrose broth (fungi) and incubated at 37° C. for 24-48 h until cell pellets were visible. Microbicidal activities (confirmed in control experiments as described in Example II) were determined as the absence of a cell pellet in the various dilutions. Peptide concentrations that caused ≧99.9% killing (absence of a cell pellet at 1:10^3 dilution) were taken as the minimum microbicidal concentrations (MMC).

[2] = tested on: C. albicans 16820; test: Cell-suspension microbicidal assay (MMC); format: cell-based, Candida albicans; conditions: for MMC, C. albicans: lowest concentration that reduced cell viability by 99.9%, 10 mM PIPES, 5 mM glucose, pH 7.4, 2 h 37° C.; for fold higher potency against C. albicans than the peptide acid analog: carboxamide versus C-terminal acid of the same acyclic θ-defensin
Experimental: as §1, §2

[3] = tested on: E. coli ML35; test: Membrane permeabilization assay (ONPG hydrolysis); format: cell-based, Escherichia coli; conditions: rates at 1 μg/ml concentration of each peptide
Experimental: For the membrane permeabilization assay, the permeabilization of bacterial cytoplasmic membranes was determined by measuring hydrolysis of o-nitrophenyl-β-D-galactcpyranoside (ONPG) in E. coli ML35 (Sitaram et al., FEBS Lett. 303:265-268 (1992); Lehrer et al.,. J. Immunol. Methods 108:153-158 (1988)). Peptides dissolved in 5 μl of 0.01% acetic acid were two-fold serially diluted with 10 mM PIPES, pH 7.4, containing 3 mM ONPG, to final peptide concentrations of 0-8.0 μg/ml. Log-phase bacteria, prepared in PIPES buffer as described for the microbicidal assay (see Example I), were added to 1×10^6 CFU/ml final density in a final volume of 90 μl. ONPG hydrolysis was measured at 405 nm for 60 min using a SpectraMAX 190 plate reader and SOFTmaxPRO 3.1 (Molecular Devices Corp., CA). […]

[4] = tested on: S. aureus 502a, E. coli ML35, and C. albicans 16820; test: Cell-suspension microbicidal assay, statements across the test organisms (lowest MMC, overall ranges); format: cell-based; conditions: peptide concentration that kill 99.9% of either S. aureus, E. coli, or C. albicans; lowest MMC value
Experimental: as §1, §2
(§3) A selectivity index (SI=H/M) was calculated as a ratio of a peptide concentration (μg/ml) that causes 3% hemolysis (H) obtained from a dose-dependent hemolysis plot over 0.3 to 3 μg/ml of each peptide in PBS and the lowest MMC value (M) for any of the three test microorganisms (see Example II; Table 2).

[5] = tested on: S. aureus 502a; test: Cell-suspension microbicidal assay (MMC); format: cell-based, Staphylococcus aureus; conditions: for MMC, S. aureus: lowest concentration that reduced cell viability by 99.9%, 10 mM PIPES, 5 mM glucose, pH 7.4, 2 h 37° C.; for fold reduction of staphylocidal potency relative to the peptide acid analog: carboxamide versus C-terminal acid of the same acyclic θ-defensin
Experimental: as §1, §2

[6] = tested on: human erythrocytes; test: Hemolysis assay; format: cell-based
Experimental: For the hemolysis assay, the hemolytic activity of each peptide was determined by the method of Tam et al. (Tam et al., Eur. J. Biochem. 267:3289-3300 (2000)). Blood was obtained from a healthy donor in accordance to a protocol approved by the Institutional Review Board. Normal human serum was prepared from the same individual and stored at −20° C. Red blood cells (RBC) were prepared from blood collected in EDTA. RBC were harvested at 234×g for 10 min, 22° C., washed four times with 10 mM sodium phosphate, 150 mM NaCl, pH 7.4 (PBS), containing 4 mM EDTA and resuspended in PBS without EDTA. Peptides dissolved in 10 μl 0.01% HOAc were diluted with PBS to final concentrations of 0.3-100 μg/ml. RBC were added to a 2% final density in 100 μl. Incubation mixtures were also prepared with 10% serum. After 1 h incubation at 37° C., the cell suspensions were centrifuged at 234×g for 10 min, 22° C. Fifty-μl samples of the supernatants were removed, and the absorbance at 405 nm (A) was measured. Hemolytic activity of each peptide was calculated relative to lysis by 1% NP-40 using the following formula:
as §3

Compound	MMC, E. coli [1]	fold lower candidacidal activity than 3cys 3:1 PG-1-OH ([2]; from MMC, Table 2)	MMC, C. albicans [2]	ONPG hydrolysis [3]	M [4]	fold lower staphylocidal activity than 3cys 3:1 PG-1-OH ([5]; from MMC, Table 2)	MMC, S. aureus [5]	fold lower candidacidal potency than native PG-1 ([2]; from MMC, Table 2)	fold lower staphylocidal potency than native PG-1 ([5]; from MMC, Table 2)	hemolysis [6]	fold higher potency against E. coli than the peptide acid analog [1]	H ([6]; peptide concentration that causes 3% hemolysis, calculated from dose-dependent hemolysis plot over 0.3-3 μg/ml in PBS)	fold higher potency against C. albicans than the peptide acid analog [2]	fold reduction of staphylocidal potency relative to the peptide acid analog [5]
CC(C)[C@@H]1NC(=O)[C@@H]2CSSC[C@H](NC(=O)[C@H](CCCNC(=N)N)NC(=O)[C@@H](NC(=O)CNC(=O)CN)CSSC[C@@H](C(=O)N[C@@H](CCCNC(=N)N)C(=O)N[C@@H](CCCNC(=N)N)C(=O)O)NC1=O)C(=O)N[C@@H](Cc1ccc(O)cc1)C(=O)N[C@H]1CSSC[C@H](NC(=O)[C@H](Cc3ccccc3)NC(=O)[C@H](CCCNC(=N)N)NC(=O)[C@H](CCCNC(=N)N)NC(=O)[C@H](CCCNC(=N)N)NC1=O)C(=O)N[C@@H](C(C)C)C(=O)N2 [3cys 2:2 PG-1-OH] (H-GGCRCYCRRRFCVCVCRR-OH; disulfide 3-16, 5-14, 7-12; N-terminus assumed)	1.0 µg/mL	2-4 fold	4.0 µg/mL	13.0 (A405/sec) · 10^−5	1 µg/mL	2-4 fold	2.0 µg/mL	–	–	–	–	–	–	–
CC(C)[C@@H]1NC(=O)[C@@H]2CSSC[C@H](NC(=O)[C@H](CCCNC(=N)N)NC(=O)[C@@H](NC(=O)CNC(=O)CNC(=O)[C@@H](N)CCCNC(=N)N)CSSC[C@@H](C(=O)N[C@@H](CCCNC(=N)N)C(N)=O)NC1=O)C(=O)N[C@@H](Cc1ccc(O)cc1)C(=O)N[C@H]1CSSC[C@H](NC(=O)[C@H](Cc3ccccc3)NC(=O)[C@H](CCCNC(=N)N)NC(=O)[C@H](CCCNC(=N)N)NC(=O)[C@H](CCCNC(=N)N)NC1=O)C(=O)N[C@@H](C(C)C)C(=O)N2 [3cys 3:1 PG-1-NH] (H-RGGCRCYCRRRFCVCVCR-NH2; disulfide 4-17, 6-15, 8-13; N-terminus assumed)	1.5 µg/mL	–	4.0 µg/mL	12.3 (A405/sec) · 10^−5	1.5 µg/mL	–	2.0 µg/mL	5 fold	5 fold	–	–	–	–	–
CC(C)[C@@H]1NC(=O)[C@@H]2CSSC[C@H](NC(=O)[C@H](CCCNC(=N)N)NC(=O)[C@@H](NC(=O)CNC(=O)CNC(=O)[C@@H](N)CCCNC(=N)N)CSSC[C@@H](C(=O)N[C@@H](CCCNC(=N)N)C(=O)O)NC1=O)C(=O)N[C@@H](Cc1ccc(O)cc1)C(=O)N[C@H]1CSSC[C@H](NC(=O)[C@H](Cc3ccccc3)NC(=O)[C@H](CCCNC(=N)N)NC(=O)[C@H](CCCNC(=N)N)NC(=O)[C@H](CCCNC(=N)N)NC1=O)C(=O)N[C@@H](C(C)C)C(=O)N2 [3cys 3:1 PG-1-OH] (H-RGGCRCYCRRRFCVCVCR-OH; disulfide 4-17, 6-15, 8-13; N-terminus assumed)	1.5 µg/mL	–	1.5 µg/mL	11.0 (A405/sec) · 10^−5	0.5 µg/mL	–	0.5 µg/mL	–	–	–	–	–	–	–
CC(C)[C@@H]1NC(=O)[C@@H]2CSSC[C@H](NC(=O)[C@H](CCCNC(=N)N)NC(=O)[C@@H]3CSSC[C@H](NC1=O)C(=O)N[C@@H](CCCNC(=N)N)C(=O)N[C@@H](CCCNC(=N)N)C(=O)NCC(=O)NCC(=O)N3)C(=O)N[C@@H](Cc1ccc(O)cc1)C(=O)N[C@H]1CSSC[C@H](NC(=O)[C@H](Cc3ccccc3)NC(=O)[C@H](CCCNC(=N)N)NC(=O)[C@H](CCCNC(=N)N)NC(=O)[C@H](CCCNC(=N)N)NC1=O)C(=O)N[C@@H](C(C)C)C(=O)N2 [3cys cPG-1] (cyclo(GGCRCYCRRRFCVCVCRR); disulfide 3-16, 5-14, 7-12)	1.3 µg/mL	–	2.5 µg/mL	10.7 (A405/sec) · 10^−5	0.5 µg/mL	–	0.5 µg/mL	3 fold	–	5-6%	–	–	–	–
CC(C)C[C@H](NC(=O)[C@H](CCCNC(=N)N)NC(=O)CNC(=O)CN)C(=O)N[C@H]1CSSC[C@@H](C(=O)N[C@H](C(=O)NCC(=O)N[C@@H](CCCNC(=N)N)C(=O)N[C@@H](CCCNC(=N)N)C(=O)O)C(C)C)NC(=O)[C@H](C(C)C)NC(=O)[C@@H]2CSSC[C@H](NC(=O)[C@H](Cc3ccc(O)cc3)NC1=O)C(=O)N[C@@H](CCCNC(=N)N)C(=O)N[C@@H](CCCNC(=N)N)C(=O)N[C@@H](CCCNC(=N)N)C(=O)N[C@@H](Cc1ccccc1)C(=O)N2 [4:4 PG-1-OH] (H-GGRLCYCRRRFCVCVGRR-OH; disulfide 5-14, 7-12; N-terminus assumed)	1.0 µg/mL	–	2.5 µg/mL	12.1 (A405/sec) · 10^−5	1 µg/mL	–	1.0 µg/mL	–	–	–	–	–	–	–
CC[C@H](C)[C@@H]1NC(=O)[C@@H]2CSSC[C@H](NC(=O)[C@H](CCCNC(=N)N)NC(=O)[C@@H](NC(=O)[C@H](Cc3ccccc3)NC(=O)CN)CSSC[C@@H](C(=O)N[C@H](C(=O)N[C@@H](CCCNC(=N)N)C(N)=O)[C@@H](C)O)NC1=O)C(=O)N[C@@H](CC(C)C)C(=O)N[C@H]1CSSC[C@H](NC(=O)[C@H](C(C)C)NC(=O)CNC(=O)[C@H](CCCNC(=N)N)NC(=O)[C@H](CCCNC(=N)N)NC1=O)C(=O)N[C@@H](CCCNC(=N)N)C(=O)N2 [aRTD-1-NH] (H-GFCRCLCRRGVCRCICTR-NH2; disulfide 3-16, 5-14, 7-12; N-terminus assumed)	2.0 µg/mL	–	1.0 µg/mL	8.8 (A405/sec) · 10^−5	1 µg/mL	–	5.0 µg/mL	–	–	–	4 fold	8.8 µg/mL	4 fold	no effect
CC(C)C[C@@H]1NC(=O)[C@@H]2CSSC[C@H](NC(=O)[C@H](CCCNC(=N)N)NC(=O)[C@@H](NC(=O)[C@@H](NC(=O)CN)C(C)C)CSSC[C@@H](C(=O)N[C@@H](CCCNC(=N)N)C(=O)N[C@@H](CCCNC(=N)N)C(N)=O)NC1=O)C(=O)N[C@@H](CC(C)C)C(=O)N[C@H]1CSSC[C@H](NC(=O)[C@H](C(C)C)NC(=O)CNC(=O)[C@H](CCCNC(=N)N)NC(=O)[C@H](CCCNC(=N)N)NC1=O)C(=O)N[C@@H](CCCNC(=N)N)C(=O)N2 [aRTD-3-NH] (H-GVCRCLCRRGVCRCLCRR-NH2; disulfide 3-16, 5-14, 7-12; N-terminus assumed)	1.0 µg/mL	–	0.8 µg/mL	9.7 (A405/sec) · 10^−5	0.75 µg/mL	–	4.5 µg/mL	–	–	–	2- to 4 fold	–	2- to 4 fold	3 fold

Reference: US7462598B2, “Antimicrobial theta defensins, analogs thereof, and methods of use” (priority 2002, dated 2008)
